According to ChEMBL document CHEMBL5247674, “Discovery of Selective and Potent KRASG12D Inhibitors as Potential Therapy in Cancer” (ACS Med Chem Lett, 2023):

Experiments:
[1] = biological target: GTPase KRas (Homo sapiens, UniProt P01116, G12D); test: Inhibition of human KRAS G12D mutant in human AGS cells assessed as reduction in phosphorylated ERK level incubated for 3 hrs; type: cell-based
[2] = species: Homo sapiens; test: Selectivity ratio of IC50 for inhibition of KRAS G12D mutant (unknown origin) to CRAF (unknown origin) protein protein interaction to IC50 for KRAS (unknown origin) to CRAF (unknown origin) protein protein interaction; details: tested as the 2H-labelled form
[3] = Inhibition of KRAS G12D mutant (unknown origin) to CRAF (unknown origin) protein protein interaction; parameters: species or system Homo sapiens
[4] = biological target: GTPase KRas/RAF1 (Homo sapiens, UniProt P01116); test: Inhibition of KRAS (unknown origin) to CRAF (unknown origin) protein protein interaction; type: protein assay
Chain of GTPase KRas/RAF1 (P04049 whole entry): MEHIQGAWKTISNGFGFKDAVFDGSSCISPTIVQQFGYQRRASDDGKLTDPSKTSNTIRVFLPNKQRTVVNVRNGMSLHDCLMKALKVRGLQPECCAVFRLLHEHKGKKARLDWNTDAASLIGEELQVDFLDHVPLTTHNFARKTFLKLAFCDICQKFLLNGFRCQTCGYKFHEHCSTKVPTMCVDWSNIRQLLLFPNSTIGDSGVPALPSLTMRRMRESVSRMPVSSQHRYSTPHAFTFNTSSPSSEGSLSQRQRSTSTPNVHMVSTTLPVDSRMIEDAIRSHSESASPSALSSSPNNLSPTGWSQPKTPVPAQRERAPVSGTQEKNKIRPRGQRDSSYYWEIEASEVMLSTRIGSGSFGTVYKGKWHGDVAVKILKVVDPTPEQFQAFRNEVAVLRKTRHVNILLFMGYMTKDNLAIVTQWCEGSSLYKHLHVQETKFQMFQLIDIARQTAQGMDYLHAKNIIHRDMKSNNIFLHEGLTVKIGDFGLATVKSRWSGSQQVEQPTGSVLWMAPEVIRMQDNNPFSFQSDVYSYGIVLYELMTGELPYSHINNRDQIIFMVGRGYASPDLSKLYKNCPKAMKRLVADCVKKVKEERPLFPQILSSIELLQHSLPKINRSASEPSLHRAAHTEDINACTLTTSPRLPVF
Chain of GTPase KRas/RAF1 (P01116 whole entry): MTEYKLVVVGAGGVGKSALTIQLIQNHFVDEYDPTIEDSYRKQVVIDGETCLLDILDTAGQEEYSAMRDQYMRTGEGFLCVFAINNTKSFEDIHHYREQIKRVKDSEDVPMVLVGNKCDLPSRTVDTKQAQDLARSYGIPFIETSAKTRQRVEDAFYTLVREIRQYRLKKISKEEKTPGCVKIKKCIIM

Chain of GTPase KRas (P01116 whole entry G12D): as the sequence (P01116 whole entry) above, with G12D counted along it

Structure (SMILES)	IC50 [1] [nM]	Ratio IC50 [2]	IC50 [3] [nM]	IC50 [4] [nM]
[2H]C1([2H])CC[C@@]2(COc3nc(N4CC5CCC4CN5)c4cnc(-c5cc(O)cc(F)c5C5CC5)c(F)c4n3)C[C@@]([2H])(F)CN12 (some centres undefined)	> 50			
[2H]C1([2H])CC[C@]2(COc3nc(N4CC5CCC4CN5)c4cnc(-c5cc(O)cc(Cl)c5C5CC5)c(F)c4n3)C[C@]([2H])(F)CN12 (some centres undefined)	> 50			
[2H]C1([2H])CC[C@@]2(COc3nc(N4CC5CCC4CN5)c4cnc(-c5cc(O)cc6ccc(F)c(F)c56)c(F)c4n3)C[C@@]([2H])(F)CN12 (some centres undefined)	≤ 50			
[2H]C1([2H])CC[C@@]2(COc3nc(N4CC5CCC4CN5)c4cnc(-c5cc(O)cc(Cl)c5C5CC5)c(F)c4n3)C[C@@]([2H])(F)CN12 (some centres undefined)	≤ 50		13.9	> 1000
C#Cc1c(F)ccc2cc(O)cc(-c3ncc4c(N5CC6CCC5CN6)nc(OC[C@@]56CCCN5C[C@H](F)C6)nc4c3F)c12 (some centres undefined)		12		
[2H]C1([2H])CC[C@@]2(COc3nc(N4CC5CCC4CN5)c4cnc(-c5cc(O)cc6ccc(F)c(C#C)c56)c(F)c4n3)C[C@@]([2H])(F)CN12 (some centres undefined)	≤ 50		5.07	59.6

The remaining lines, values ahead:

IC50 [1] [nM]	Ratio IC50 [2]	IC50 [3] [nM]	IC50 [4] [nM]	Structure (SMILES)
> 50				Oc1cc(Cl)c(C2CC2)c(-c2ncc3c(N4CC5CCC4CN5)nc(OC[C@]45CCCN4C[C@@H](F)C5)nc3c2F)c1 (some centres undefined)
	12			C#Cc1c(F)ccc2cc(O)cc(-c3ncc4c(N5CC6CCC5CN6)nc(OCC56CCCN5CCC6)nc4c3F)c12 (centres undefined)
> 1				Oc1cc(Cl)c(C(F)(F)F)c(-c2ncc3c(N4CC5CCC4CN5)nc(OCC45CCCN4CCC5)nc3c2F)c1 (centres undefined)
> 1				Oc1ccc(C(F)(F)F)c(-c2ncc3c(N4CC5CCC4CN5)nc(OCC45CCCN4CCC5)nc3c2F)c1 (centres undefined)
≤ 50		3.95	48.9	[2H][C@H]1CN2CCC[C@@]2(COc2nc(N3CC4CCC3CN4)c3cnc(-c4cc(O)cc5ccc(F)c(C#C)c45)c(F)c3n2)C1 (some centres undefined)
≤ 50	> 72			Oc1cc(Cl)c(C2CC2)c(-c2ncc3c(N4CC5CCC4CN5)nc(OC[C@@]45CCCN4C[C@H](F)C5)nc3c2F)c1 (some centres undefined)
